Key:
glioma cell lines = assay: Washout assay, all cell lines together; format: cell-based; conditions: all seven glioma cell lines of Table 5
Method: Seven glioma cell lines that can double at least once over three days were thawed and grown to 70-80% confluency before being used in the assay. On day 1, for each cell line, 2-3×10^5 cells were seeded into each well in 6-well cell culture plates and incubated at 37° C. overnight. […] The plates were incubated at 37° C. for 3 days.
On day 5, the compound was efficiently washed four times with culture medium supplemented with 20% fetal bovine serum (FBS) and then washed once in buffered saline solution (PBS). The cells were trypsinized. For each of the concentrations, compound-treated cell lines were plated into five 96-well plates at 5000 cells per well. For the next 4 consecutive days, one plate of the cells was taken out of the incubator and cell proliferation was measured by MTT ELISA assay.
The washout assay is designed to follow the cells' recovery from exposure to the compound. Each glioma cell line was assayed at least twice. The criteria for evaluating sensitivity or resistance was Last Growth Back Concentration (LGC), if LGC<=30 nM, the cell line is considered sensitive; if LGC>=1 uM, it is considered resistant; if LGC is in between these two concentrations, the cell line is considered intermediate. Based on criteria set, all the glioma cell lines appeared to be sensitive to the compound of Example 1.

[1] = Protein binding to human plasma proteins by equilibrium dialysis; format: in vitro ADME; conditions: pH 7.4, equilibrium dialysis 6 h, 37° C.
Method: 96 Well Plate (High Throughput Dialysis): Stock solution of compound was spiked into human plasma at a target concentration of 2000 ng/mL. The mixture was inverted gently several times to insure homogeneity and triplicate 50 μL aliquots were collected to verify initial concentrations. Following assembly of dialysis plate (HTDialysis membrane strips, molecular weight cut off limit of 12,000-14,000 daltons), spiked plasma (150 μL) was placed in the donor compartment of the well and Phosphate Buffered Saline pH 7.4 (150 μL) in the receiver compartment. Eight wells were set up per compound and plasma type. Plate was placed in a 37° C. incubator on a plate shaker. Following the 6 h incubation period, the plate was removed. Single 50 μL aliquots from each donor and receiver compartment (per well) were analyzed.
Sample analysis was by LC/MS/MS (results reported as Drug Peak Area/Internal Standard Peak Area ratios). Protein binding assay can also be performed using dialysis cells instead of HT Dialysis 96 well plates. In Table 1, % Protein Binding, +=>98%; ++=95-98%: +++=<95%.

H460 = assay: Methylene blue growth inhibition assay; format: cell-based; conditions: Homo sapiens, NCI-H460, 72 h
Method: (§1) Generally, exponentially growing cell lines of different tumor origins, cultured in appropriate media containing 10% fetal bovine serum at 37° C. in a 5% CO2 incubator were plated at low density (less than 2000 cells/well) in 96-well plates. Twenty four hours post-plating, cells were treated with different concentrations of compound ranging from 10 uM to 0.04 nM. Several wells were left untreated as a control. Seventy two hours post-treatment, cell numbers were determined using 100 μl per well of methylene blue (Sigma M9140) (0.5% in 50:50 Ethanol:water). Stain was incubated at room temperature for 30 minutes before plates were rinsed and dye solubilized in 1% N-lauroyl sarcosine, sodium salt, (Sigma L5125, in PBS) (further details of a methylene blue assay are described below). Plates were read on a microplate reader, measuring the OD at 620 nm.
(§2) Concentration of test compound that inhibited 50% of cell growth (IC50) was determined by 4 parameter fit of data using XLfit, (value of no cell control was subtracted from all samples for background). The data are shown in Table 1 below and represent a compilation of several different experiments, each performed using the general parameters outlined above, although minor variations may have been employed in some instances.
(§3) In one assay, normal human foreskin fibroblasts (HFF), human colon (HCT116, RKO), lung (H460, A549) and breast (MCF7) tumor cell lines were cultured in high glucose DMEM (Life Technologies) containing 10% fetal bovine serum (FBS) at 37° C. in a humidified 5% CO2, 95% air incubator. Cells were harvested using trypsin/EDTA, counted using a haemocytometer, and plated in 100 μL of culture media per well, at the following densities, in a 96-well tissue culture plate (Falcon 3075): HFF 5,000 cells/well, HCT116 3,000 cells/well, RKO 2,500 cells/well, H460 2,500 cells/well, A549 5,000 cells/well, MCF7 4,000 cells/well. The next day, compound was diluted in low glucose DMEM containing 100 μg/mL gentamicin, at twice the final required concentration, from 10 mM stock solutions in DMSO. 100 μL/well of these dilutions were added to the 100 μL of media currently in the assay plates. Medium containing 0.6% DMSO was added to control wells. The final concentration of DMSO in all wells was 0.3%. Cells were incubated at 37° C., 5% CO2 for 72 h. Medium was removed by aspiration. Cell biomass was estimated by staining cells with 80 μL per well methylene blue (Sigma M9140, 0.5% in 50:50 ethanol:water), and incubation at room temperature for 30-60 min. Stain was removed by aspiration and the plates rinsed by immersion in water, then air-dried. To release stain from the cells, 100 μL of solubilization solution was added (1% N-lauroyl sarcosine, Sodium salt, Sigma L5125, in PBS), and plates were shaken gently for about 30 min. Optical density at 620 nm was measured on a microplate reader. Percent inhibition of cell growth was calculated relative to vehicle treated control wells. Concentration of compound that inhibits 50% of cell growth (IC50) was interpolated using nonlinear regression (Levenberg-Marquardt) and the equation, y=Vmax*(1−(x/(K+x)))+Y2, where “K” was equal to the IC50.

A549 = assay: Methylene blue growth inhibition assay; format: cell-based; conditions: Homo sapiens, 72 h
Method: as §1, §2, §3

[2] = system: HFF (normal human foreskin fibroblasts); assay: Methylene blue growth inhibition assay; format: cell-based; conditions: Fibroblast, 72 h
Method: as §1, §2, §3

RKO = assay: Methylene blue growth inhibition assay; format: cell-based; conditions: Homo sapiens, 72 h
Method: as §1, §2, §3

MCF7 = assay: Methylene blue growth inhibition assay; format: cell-based; conditions: Homo sapiens, 72 h
Method: as §1, §2, §3

HCT116 = assay: Methylene blue growth inhibition assay; format: cell-based; conditions: Homo sapiens, HCT-116, 72 h
Method: as §1, §2, §3

Q: For `C[C@@H](Oc1cc(-n2cnc3ccc(CN4CCN(C)CC4)cc32)sc1C(N)=O)c1ccccc1C(F)(F)F` [Example 1, 5-{6-[(4-Methylpiperazin-1-yl)methyl]-1H-benzimidazol-1-yl}-3-{(1R)-1-[2-(trifluoromethyl)phenyl]ethoxy}thiophene-2-carboxamide], which “sensitivity of glioma cell lines by LGC criteria” value (glioma cell lines) is on record?
A: sensitive (LGC<=30 nM)

Q: What about the fraction unbound at 6 h, 2000 ng/mL [1] of the same compound?
A: > 0.05

Q: What about the IC50 (H460) of the same compound?
A: < 100 nM

Q: What about the IC50 (A549) of the same compound?
A: < 100 nM

Q: And the IC50 [2]?
A: < 100 nM

Q: What about the IC50 (RKO) of the same compound?
A: < 100 nM

Q: And the IC50 (MCF7)?
A: < 100 nM

Q: What about the IC50 (HCT116) of the same compound?
A: < 100 nM

Reference: patent US20090005398A1, “Methods For The Treatment of Central Nervous System Tumors” (priority 2007, published 2009)
